Entries after “also recorded” stand apart in the source; their conditions may differ.
Tests used:
Eurasian watermilfoil [1] = experiment: 14C herbicide uptake study, shoot exposure; type: in vivo, Myriophyllum spicatum
Excerpt: Plants were allowed to equilibrate overnight prior to treatment. […] Plants were separated into aboveground and belowground segments. […] After drying, plants were weighed and biomass recorded.

hydrilla = settings: Hydrilla verticillata (hydrilla), in vivo
Method: Eurasian watermilfoil or hydrilla apical fragments were collected from infested field sites and grown in topsoil cultures in greenhouse conditions until needed for uptake experiments. For uptake studies, 15 cm apical fragments were planted in glass jars in topsoil with a sand cap. Plants were allowed to grow in 30 L tanks until rooted (˜14 days). Prior to experiments plants were removed from water and agarose gel (1.5%) was added to each sand cap surface in each jar to avoid root exposure. Three plants of each species were then placed in 4 L plastic containers containing 3 L of dechlorinated tap water. Plants were allowed to equilibrate overnight prior to treatment. During the study, plants were maintained at room temperature (25° C.) under grow lights. Six containers were treated for each experiment using the following aboveground (i.e., above gel layer and into shoot section) treatments of ^14C-radiolabeled herbicide: Fluridone—10 ppb, Penoxsulam—10 ppb, Triclopyr—1,000 ppb (10 ppb ^14C, remainder ‘cold’ material). All radiolabeled dosing of 10 ppb equated to 222,000 DPM of 14C herbicide. The selected total herbicide rates corresponded to typical use rates for these three aquatic herbicides. […] After drying, plants were weighed and biomass recorded. Plants were then burned using a biological sample oxidizer and radioactivity quantified using liquid scintillation spectroscopy (LSS). […]

Eurasian watermilfoil [2] = experiment: 14C-triclopyr uptake study, root exposure; type: in vivo, Myriophyllum spicatum; settings: root exposure, 200,000 dpm 14C-triclopyr
Method: Threshold absorption is reached within 12-24 hours for below ground tissue and near-maximum translocation to aboveground tissue is reached within 48 hours.
Prior to the experiment, plants were transplanted into glass jars filled with water plus a diluted growth media (Hoagland's Solution) and an eicosane wax plug was added to separate aboveground and belowground portions of the plant. Plants were allowed to equilibrate in this solution for 5 days. The root zone of each plant was treated with 200,000 dpm of 14C-triclopyr. Plants were then moved into 3 gallon tanks with other treated plants. Treatments were replicated 3 times and harvested at 12, 24, 48, 96, 192 HAT. Upon harvest, plants were separated into aboveground and belowground portions, dried, weighed and biomass recorded.

fish = settings: cited from earlier work
curly-leaf pondweed = experiment: Greenhouse concentration and exposure trial on curly-leaf pondweed; type: in vivo, Potamogeton crispus
Excerpt: Error bars are +1 standard deviation (n=3).
Relative to control of invasive curly-leaf pondweed (or CLP), greenhouse studies of penoxsulam concentration and exposure requirements to achieve control of this species have documented that exposure periods of 3-7 days to 3-6 ppb penoxsulam can provide effective control. FIG. 10 presents results of a representative greenhouse trial of penoxsulam treatment of CLP. 13-cm diameter pots were filled with potting soil amended with Osmocote slow release fertilizer (14-14-14). Four apical CLP tips, harvested from a culture at the SRTC, were planted into each pot. A one-inch sand cap was placed over the potting soil and submersed into 54 gallon tubs to allow for grow-out. At 19 days after planting, the five tubs were treated with 0, 3, 6, 12, or 24 ppb penoxsulam. Three pots per treatment were pulled out and placed into a common grow-out tank at 1, 3, 7, and 14 days after treatment (DAT). Once the plants were allowed to grow out for 28 DAT the plants were harvested to determine aboveground dry weight (48 hours at 70° C.).

[3] = shoot exposure, triclopyr 1,000 ppb, FIG. 1A, hydrilla and Eurasian milfoil not distinguished in text

## O=C(O)COc1nc(Cl)c(Cl)cc1Cl [triclopyr, 3,5,6-trichloro-2-pyridyloxyacetic acid]
Eurasian watermilfoil [1]; Myriophyllum spicatum (Eurasian watermilfoil), in vivo
  time to maximum uptake: ≤ 96 h
Eurasian watermilfoil [1]; shoot exposure, Eurasian milfoil, FIG. 1B
  dose-corrected maximum uptake versus fluridone and penoxsulam: Greater dose-corrected uptake; also recorded: much greater on a dose-corrected basis
Eurasian watermilfoil [1]; [3]
  time to threshold levels in aboveground tissues: 48 to 96 h
  time to threshold levels in belowground tissues: 6 to 12 h
hydrilla
  time to maximum uptake: ≤ 96 h
Eurasian watermilfoil [2]
  time to near-maximum translocation to aboveground tissue: ≤ 48 h
  time to threshold uptake in belowground tissue: 12 to 24 h

## CCN(CC)CC.O=C(O)COc1nc(Cl)c(Cl)cc1Cl [Triclopyr triethylamine]
fish; in vivo
  toxicity to creatures such as fish versus butoxyethyl ester of triclopyr: substantially less toxic

## CNC.O=C(O)COc1ccc(Cl)cc1Cl [2,4-d dimethylamine salt]
fish; US EPA 2,4-D Re-Registration Eligibility Decision 2005
  toxicity to creatures such as fish versus butoxyethyl ester of 2,4-d: substantially less toxic

## COc1cnc(OC)n2nc(NS(=O)(=O)c3c(OCC(F)F)cccc3C(F)(F)F)nc12 [penoxsulam, 2-(2,2-difluoroethoxy)-6-(trifluoromethyl)-N-(5,8-dimethoxy[1,2,4]triazolo-[1,5c]pyrimidin-2-yl)-benzenesulfonamide]
curly-leaf pondweed; 3-6 ppb penoxsulam
  exposure period providing effective control: 3 to 7 days
curly-leaf pondweed; exposure periods of 3-7 days
  penoxsulam concentration providing effective control: 3-6 ppb

From patent US9137987B2, “Moderated release aquatic herbicide formulations” (SePro Corporation, priority 2011, dated 2015)
